Data: the NIST ThermoML archive (doi:10.1021/je049955d)

Legend:
[1] = xn = mol fraction of the nth substance listed; settings: 298.15 K, Ring tensiometer
[2] = 298.15 K, Ring tensiometer

CCOCCOC(C)=O [2-ethoxyethyl ethanoate] + O
[1]
Settings | surface tension liquid-gas [mN/m]
x1 = 0.000101 | 70
x1 = 0.000178 | 68.9
x1 = 0.00019 | 68.4
x1 = 0.000221 | 67.9
x1 = 0.000407 | 66
x1 = 0.00046 | 65.6
x1 = 0.000582 | 64.5
x1 = 0.000777 | 63.5
x1 = 0.000958 | 62.4
x1 = 0.001352 | 60.3
x1 = 0.003046 | 55.2
x1 = 0.005086 | 51.2
x1 = 0.007004 | 48.6
x1 = 0.01091 | 44.7
x1 = 0.013 | 43.2
x1 = 0.01497 | 41.4

CCC#N [propanenitrile]
Settings | surface tension liquid-gas [mN/m]
[2] | 26.9

CCC(C)=O [butanone]
Settings | surface tension liquid-gas [mN/m]
[2] | 24.2

COC(=O)CC(C)=O [methyl 3-oxobutanoate] + O
[1]
Settings | surface tension liquid-gas [mN/m]
x1 = 0.000186 | 71.1
x1 = 0.000411 | 70.4
x1 = 0.000609 | 69.9
x1 = 0.000793 | 69.3
x1 = 0.001003 | 68.6
x1 = 0.001822 | 66.6
x1 = 0.003971 | 62.4
x1 = 0.005842 | 60.2
x1 = 0.008086 | 57.8
x1 = 0.00996 | 56.1
x1 = 0.01206 | 54.5
x1 = 0.01404 | 53.2

COC(=O)CC(C)=O [methyl 3-oxobutanoate]
Settings | surface tension liquid-gas [mN/m]
[2] | 35.7

CCOC(C)=O [ethyl acetate]
Settings | surface tension liquid-gas [mN/m]
[2] | 23.7

OC1CCCC1 [cyclopentanol] + O
[1]
Settings | surface tension liquid-gas [mN/m]
x1 = 0.000201 | 70.8
x1 = 0.000369 | 69.6
x1 = 0.000525 | 68.5
x1 = 0.000574 | 68
x1 = 0.000713 | 67.3
x1 = 0.000986 | 65.1
x1 = 0.001816 | 60.2
x1 = 0.002519 | 57.5
x1 = 0.002728 | 56.3
x1 = 0.003934 | 52.6
x1 = 0.005255 | 49.6
x1 = 0.005987 | 48.3
x1 = 0.008154 | 44.8
x1 = 0.01025 | 42.4
x1 = 0.01189 | 40.6
x1 = 0.01448 | 38.4

CC(=O)CC(C)=O [2,4-pentanedione]
Settings | surface tension liquid-gas [mN/m]
[2] | 30.9

OCCO [1,2-ethanediol] + O
[1]
Settings | surface tension liquid-gas [mN/m]
x1 = 0.008251 | 70.8
x1 = 0.01012 | 70.7
x1 = 0.01185 | 70.4
x1 = 0.01423 | 70.2
x1 = 0.01585 | 69.7
x1 = 0.01823 | 69.6
x1 = 0.02 | 69.4
x1 = 0.02198 | 69.2
x1 = 0.02488 | 68.8
x1 = 0.02992 | 68.2
x1 = 0.03542 | 67.7
x1 = 0.0401 | 67.3
x1 = 0.04519 | 66.6
x1 = 0.101 | 62.5
x1 = 0.2 | 57.9

OCCO [1,2-ethanediol]
Settings | surface tension liquid-gas [mN/m]
[2] | 47.8

CCC(C)O (stereo unspecified) [butan-2-ol]
Settings | surface tension liquid-gas [mN/m]
[2] | 23.3

OC1CCCC1 [cyclopentanol]
Settings | surface tension liquid-gas [mN/m]
[2] | 32.8

CCOCCOC(C)=O [2-ethoxyethyl ethanoate]
Settings | surface tension liquid-gas [mN/m]
[2] | 28.7

O=C1CCCC1 [cyclopentanone]
Settings | surface tension liquid-gas [mN/m]
[2] | 33

CCC(C)O (stereo unspecified) [butan-2-ol] + O
[1]
Settings | surface tension liquid-gas [mN/m]
x1 = 0.000154 | 70.2
x1 = 0.000211 | 69.7
x1 = 0.000443 | 67.3
x1 = 0.000718 | 64.8
x1 = 0.001 | 62.6
x1 = 0.001994 | 57.5
x1 = 0.003914 | 50.9
x1 = 0.005882 | 46.4
x1 = 0.00799 | 43.1
x1 = 0.009938 | 40.6
x1 = 0.01199 | 38.5
x1 = 0.01394 | 36.8

O=C1CCCC1 [cyclopentanone] + O
[1]
Settings | surface tension liquid-gas [mN/m]
x1 = 0.000186 | 71.1
x1 = 0.000367 | 70.3
x1 = 0.000559 | 69.6
x1 = 0.000768 | 68.9
x1 = 0.000966 | 68.3
x1 = 0.001362 | 67
x1 = 0.002445 | 63.6
x1 = 0.003863 | 61.1
x1 = 0.006022 | 57.8
x1 = 0.007908 | 55.5
x1 = 0.009964 | 53.7
x1 = 0.01215 | 52
x1 = 0.01428 | 50.3

CCC(C)=O [butanone] + O
[1]
Settings | surface tension liquid-gas [mN/m]
x1 = 5.71e-05 | 71.8
x1 = 7.54e-05 | 71.7
x1 = 8.96e-05 | 71.5
x1 = 0.000112 | 71.3
x1 = 0.000296 | 70
x1 = 0.000522 | 68.9
x1 = 0.000741 | 67.8
x1 = 0.000855 | 67.3
x1 = 0.000997 | 66.8
x1 = 0.002056 | 63.1
x1 = 0.00405 | 58.6
x1 = 0.006112 | 55.1
x1 = 0.008019 | 52.7
x1 = 0.01022 | 50.4
x1 = 0.01205 | 48.8
x1 = 0.01413 | 47.4

CCCCO [butan-1-ol] + O
[1]
Settings | surface tension liquid-gas [mN/m]
x1 = 0.000138 | 69.4
x1 = 0.000235 | 68.8
x1 = 0.000292 | 68.1
x1 = 0.000392 | 66.9
x1 = 0.000596 | 64.4
x1 = 0.000778 | 62.5
x1 = 0.001004 | 60.4
x1 = 0.001457 | 56.5
x1 = 0.001997 | 53.9
x1 = 0.002872 | 49.2
x1 = 0.003931 | 45.8
x1 = 0.006003 | 40.7
x1 = 0.006847 | 38.3
x1 = 0.008156 | 36.4
x1 = 0.01013 | 33.7
x1 = 0.01204 | 31.1
x1 = 0.01288 | 29.9
x1 = 0.01411 | 29.1

CC(=O)CC(C)=O [2,4-pentanedione] + O
[1]
Settings | surface tension liquid-gas [mN/m]
x1 = 0.000205 | 70.7
x1 = 0.000412 | 70.1
x1 = 0.00049 | 69.9
x1 = 0.000578 | 69.5
x1 = 0.000783 | 69.1
x1 = 0.001016 | 68.3
x1 = 0.001976 | 65.5
x1 = 0.004045 | 61.4
x1 = 0.004973 | 59.8
x1 = 0.006054 | 58.3
x1 = 0.008089 | 55.6
x1 = 0.0103 | 53.3

CCCCO [butan-1-ol]
Settings | surface tension liquid-gas [mN/m]
[2] | 24.3

O [water]
Settings | surface tension liquid-gas [mN/m]
[2] | 71.95

CCOC(C)=O [ethyl acetate] + O
[1]
Settings | surface tension liquid-gas [mN/m]
x1 = 0.000189 | 69.6
x1 = 0.000351 | 67.7
x1 = 0.000617 | 65.2
x1 = 0.000819 | 63.7
x1 = 0.000997 | 62.3
x1 = 0.002074 | 57.3
x1 = 0.003938 | 51.2
x1 = 0.006035 | 46.7
x1 = 0.008035 | 43.4
x1 = 0.009946 | 40.5
x1 = 0.01195 | 37.8
x1 = 0.01401 | 35.2

CCC#N [propanenitrile] + O
[1]
Settings | surface tension liquid-gas [mN/m]
x1 = 0.000183 | 71.6
x1 = 0.000368 | 71
x1 = 0.000563 | 70.3
x1 = 0.000784 | 69.5
x1 = 0.000963 | 69.2
x1 = 0.001988 | 66.6
x1 = 0.003895 | 62.9
x1 = 0.005968 | 59.5
x1 = 0.008178 | 56.6
x1 = 0.01015 | 54.2
x1 = 0.012 | 52.4
x1 = 0.01434 | 49.9
